In patent publication US6534676B2, “Method to treat chronic heart failure and/or elevated cholesterol levels using 3,5-diiodothyropropionic acid and method to prepare same” (The Arizona Board of Regents on Behalf of the University of …, priority 2001, dated 2003):

How the values were obtained:
[1] = Heart failure patients: right heart catheterization hemodynamics; type: in vivo, human
Experimental: (§1) All patients were hospitalized before initiating treatment and a right heart catheterization, radionuclide ejection fraction and echocardiogram were performed. Serum samples were drawn for measurement of thyrotropin, total T4, free T4, and reverse T3.
(§2) DITPA cross-reacted with antibodies for detection of T3, which consequently was not measured. Renal and hepatic function tests also were performed. Patients were randomly assigned in double-blind fashion to receive either DITPA at a dosage of 1.875 mg/kg daily or placebo in two or three divided doses. For the first four days of drug administration patients were monitored on a telemetry unit. Thereafter, weekly electrocardiograms were performed and patients were examined for changes in thyroid or cardiac status or evidence of drug toxicity.
(§3) At the end of two weeks an echocardiogram was obtained. If there was no clinical evidence of progression of heart failure or development of an arrhythmia the dose of DITPA was increased to 3.75 mg/kg daily. After an additional two weeks of treatment with the higher dosage of the drug patients were readmitted to the hospital and the tests performed in the initial evaluation were repeated.
(§4) Right heart catheterization was performed after the patient had been fasted overnight; no premedication was given. Pulmonary artery, pulmonary capillary wedge and right heart pressures were measured with a 7 Fr Swan-Ganz catheter introduced into the right femoral vein. Blood pressures were recorded with an automated arm cuff system. After an initial stabilization period of 20 to 30 minutes, the resting hemodynamic measurements were obtained. Thermodilution cardiac output measurements were averaged from five recordings after discarding the highest and lowest values. All blood tests were performed in the Clinical Pathology Laboratory at the Southern Arizona Veterans Administration Health Care System.

[2] = Heart failure patients: serum thyroid function tests; type: in vivo, human; settings: for Thyrotropin: baseline 2.47 ± 0.6; for FreeT4: baseline 1.19 ± 0.1; for ReverseT3: baseline 197 ± 27
Experimental: as §1, §2, §3, §4

[3] = system: single myocytes from infarcted rabbit hearts; settings: cited from earlier work
[4] = Double-blind DITPA versus placebo study in patients with congestive heart failure: clinical effects and tolerability; type: in vivo, human; settings: for Weight: baseline 98.7 ± 6.6, mean ± SE; for NY Heart Association functional class: baseline 2.5 ± 0.2; for Diastolic Blood Pressure: baseline 75.8 ± 4.2; for Heart Rate: baseline 81.3 ± 4.4; for Systolic Blood Pressure: baseline 122.8 ± 4.9
Experimental: In clinical trials discussed below wherein DITPA was orally administered to volunteers and patients, the DITPA was mixed under the supervision of a registered pharmacist with lactose and packed into gelatin capsules containing 50 mg of the active ingredient. Identical capsules were packed with lactose to serve as placebo medication.
Patients were eligible for enrollment in these clinical studies if they had symptoms of heart failure and an ejection fraction of less than 35%. Patients were required to be in sinus rhythm. Treatment with digitalis, angiotensin converting enzyme inhibitors, and diuretics were allowed, but β-adrenergic blocking agents were not permitted.
Three patients in the placebo group and one patient receiving DITPA were taking an HMG-CoA reductase inhibitor. Patients were excluded from the study if they were receiving amiodarone, had unstable angina, myocardial infarction within 6 months, significant aortic stenosis, hepatic or renal insufficiency, anemia (hematocrit<30%), pre-existent thyroid disease, sensitivity to iodine, active cancer or any other life-threatening disease.
as §1, §2, §3
(§5) M-mode, two-dimensional, and Doppler echocardiograms were obtained with an ultrasonographic system equipped with a […] transducer (GE VingMed, Milwaukee, Wis.) according to the recommendation of the American Society of Echocardiography. Ejection fraction was measured by gated radionuclide myocardial imaging.
Twenty-two patients underwent the initial right heart catheterization and were randomized to receive the subject drug or placebo. Nineteen patients completed the study (mean age 61.6, range 47 to 76). Patient functional classes, according to the New York Heart Association classification were II (n=12), III (n=7). One patient had dilated cardiomyopathy. The remaining patients had coronary artery disease, which was considered to be the most likely etiology of congestive heart failure. There was one death in a patient receiving placebo. One patient in the DITPA group was withdrawn because of abdominal pain and subsequently found to have cholelithiasis.

[5] = Cardiac performance, chronotropic and metabolic effect compared with L-thyroxine (background); type: in vivo
Description: Because of potential adverse effects of thyroid hormone, such as metabolic stimulation and tachycardia, what is required are thyroid hormone analogs with fewer undesirable side effects. […] Like thyroid hormone, DITPA binds to nuclear T3 receptors of the c-erbA proto-oncogene family.

[6] = Heart failure patients: echocardiography; type: in vivo, human; settings: for Shortening velocity: baseline 0.69 ± 0.15; for Ratio of early to late filling: baseline 1.10 ± 0.21; for LV diastolic dimension: baseline 6.84 ± 0.33; for Fractional shortening: baseline 17.0 ± 3.5; for Isovolumic relaxation time: baseline 92.2 ± 9.5; for LV mass: baseline 495.8 ± 45.9; for LV end-systolic dimension: baseline 5.72 ± 0.41
Experimental: as §2, §3, §5

[7] = serum, after 2 weeks (1.875 mg/kg daily)
[8] = serum, after 4 weeks (3.75 mg/kg daily)
[9] = heart failure patients, after 2 weeks (1.875 mg/kg daily)
[10] = heart failure patients, after 4 weeks (3.75 mg/kg daily)
[11] = echocardiography, after 2 weeks (1.875 mg/kg daily)
[12] = echocardiography, after 4 weeks (3.75 mg/kg daily)

## O=C(O)CCc1cc(I)c(Oc2ccc(O)cc2)c(I)c1 [DITPA, 3,5-Diiodothyropropionic acid]
[1]; after 4 weeks, baseline 2.10 ± 0.14, P 0.04 vs placebo
  Cardiac Index: 2.54 ± 0.16 liters/min/m^2
[1]; after 4 weeks, baseline 96.2 ± 6.7
  Mean Arterial Pressure: 92.0 ± 5.7 mm Hg
[1]; after 4 weeks, baseline 3,465 ± 319, P 0.02 vs placebo
  Systemic Vascular Resistance: 2,644 ± 257 dynes x sec x cm^−5
[1]; heart failure patients n=9, right heart catheterization, after 4 weeks of treatment, baseline 84.8 ± 4.9
  Heart Rate: 89.6 ± 5.3
[1]; right heart catheterization, after 4 weeks, baseline 8.1 ± 1.7
  Right atrial pressure: 10.5 ± 1.8 mm Hg
[1]; right heart catheterization, after 4 weeks, baseline 24.0 ± 3.9
  Pulmonary artery pressures, Wedge: 21.8 ± 2.75 mm Hg
[1]; right heart catheterization, after 4 weeks, baseline 25.1 ± 4.1
  Pulmonary artery pressures, Diastolic: 25.4 ± 2.5 mm Hg
[1]; right heart catheterization, after 4 weeks, baseline 30.1 ± 5.0
  Pulmonary artery pressures, Mean: 33.4 ± 3.2 mm Hg
[1]; right heart catheterization, after 4 weeks, baseline 45.0 ± 6.2
  Pulmonary artery pressures, Systolic: 49.1 ± 5.3 mm Hg
[1]; thermodilution, after 4 weeks, baseline 4.50 ± 0.36, P 0.07 vs placebo
  Cardiac Output: 5.30 ± 0.36 L/min
[2]; heart failure patients n=9, serum, after 2 weeks (1.875 mg/kg daily)
  Thyrotropin: 0.04 ± 01^++ mU/L
[2]; [7]
  FreeT4: 1.17 ± 0.1^ ng/dL
  ReverseT3: 477 ± 83^++ ng/dL
[2]; [8]
  FreeT4: 1.17 ± 0.15 ng/dL
  Thyrotropin: 0.018 ± 0.0004 mU/L
  ReverseT3: 559 ± 108 ng/dL
[3]; post-infarction heart failure in rabbits
  calcium transport in the sarcoplasmic reticulum (SR): enhances calcium transport in the sarcoplasmic reticulum (SR)
[3]; single myocytes from infarcted rabbit hearts
  contraction-frequency relationship: prevents the flattened contraction-frequency relationship
[4]; heart failure patients
  arrhythmias: No arrhythmias were noted
  clinical manifestations of hyperthyroidism: not observed
  frequency or severity of anginal attacks: no increase in frequency or severity of anginal attacks
[4]; heart failure patients n=9, after 4 weeks (last 2 weeks 3.75 mg/kg daily)
  Weight: 94.7 ± 18.8 kg
[4]; heart failure patients n=9, oral, after 2 weeks (1.875 mg/kg daily)
  Weight: 98.2 ± 19.3 kg
[4]; heart failure patients, DITPA group, after 4 weeks, P=0.059 vs placebo
  decrease in body weight: 4 kg
[4]; [9]
  NY Heart Association functional class: 2.4 ± 0.2
  Diastolic Blood Pressure: 65.7 ± 3.3 mm Hg
  Heart Rate: 83.4 ± 6.5 beats/min
  Systolic Blood Pressure: 116.2 ± 7.4 mm Hg
[4]; [10]
  NY Heart Association functional class: 2.5 ± 0.2
  Diastolic Blood Pressure: 66.4 ± 3.6 mm Hg
  Heart Rate: 82.2 ± 4.7 beats/min
  Systolic Blood Pressure: 119.1 ± 6.1 mm Hg
[4]; heart failure patients, after 4 weeks (3.75 mg/kg daily), baseline 18.1 ± 2.4
  Radionuclide Ejection Fraction: 20.6 ± 3.2%
[4]; patients with ischemic heart disease / heart failure
  tolerability: well tolerated
[5]; at increased cardiac performance
  chronotropic effect relative to L-thyroxine: approximately half of the chronotropic effect
[5]; in vivo
  metabolic stimulation relative to L-thyroxine: less metabolic stimulation than L-thyroxine
[6]; [11]
  Shortening velocity: 0.55 ± 0.09 circ/sec
  Ratio of early to late filling: 0.89 ± 0.17
  LV diastolic dimension: 6.83 ± 0.35 cm
  Fractional shortening: 13.8 ± 2.4%
  LV mass: 474.2 ± 38.2 g
[6]; echocardiography, after 2 weeks (1.875 mg/kg daily), contrast baseline to 2 weeks P = 0.051
  Isovolumic relaxation time: 87.5 ± 9.2^++ msec
[6]; [12]
  Shortening velocity: 0.57 ± 0.10 circ/sec
  Ratio of early to late filling: 1.16 ± 0.26
  LV end-systolic dimension: 6.01 ± 0.33 cm
  LV diastolic dimension: 6.96 ± 0.30 cm
  Fractional shortening: 13.8 ± 2.5%
  LV mass: 477.9 ± 40.5 g
[6]; echocardiography, after 4 weeks (3.75 mg/kg daily), ANOVA P 0.045
  Isovolumic relaxation time: 84.4 ± 8.5 ms
[6]; heart failure patients n=9, echocardiography, after 2 weeks (1.875 mg/kg daily)
  LV end-systolic dimension: 5.87 ± 0.30 cm
